In patent US7589174B2, “GRP94-based compositions and methods of use thereof” (The Children's Hospital of Philadelphia, priority 2003, dated 2009):
Read-outs that look alike come from different tables or passages of the source.

Tests used:
GRP94 [1] = biological target: T1, GRP94 (Mus musculus, UniProt P08113); experiment: Solid phase 96-well plate assay of peptide binding by recombinant GRP94 N-terminal fragments; set-up: His6 tagged N355, comprising of amino acids 34-355 of GRP94; made in house; host or cells: E. coli M15; species or system murine
grp94-/- ES cells = conditions: 1 mM EGTA, FIG. 14E-F
WT ES cells = conditions: 1 mM EGTA, FIG. 14E-F
GRP94 [2] = biological target: GRP94 (Homo sapiens, UniProt P14625); experiment: GRP94 binding of antigenic peptides (Table 3)
GRP94 [3] = conditions: vast molar excess of peptide, 10 min 50° C. treatment of the protein
GRP94 [4] = biological target: T1, GRP94; set-up: a truncated version of GRP94, containing amino acids 1-355; made in house; host or cells: insect cells; conditions: full-length GRP94, ref [14]; cited from earlier work
[5] = tested on: purified mouse dendritic cells; experiment: Binding and uptake of GRP94 N-terminal domain by dendritic cells; type: cell-based; conditions: bound at 40° C., warmed to 37° C., into endosomal vesicles, FIG. 16
GRP94 [6] = experiment: Solid phase 96-well plate assay of peptide binding by recombinant GRP94 N-terminal fragments; set-up: species or system murine
[7] = tested on: radicicol-binding pocket of GRP94; experiment: Radicicol binding judged by conformational change on blue native gel electrophoresis; set-up: species or system murine; conditions: 300 μM radicicol or DMSO
tumors = conditions: vaccinated mice, Blachere et al. 1997; cited from earlier work
[8] = antigenic peptides that can be loaded on GRP94

Sequence of GRP94 (Homo sapiens, UniProt P14625) (P14625 22-803, species assumed): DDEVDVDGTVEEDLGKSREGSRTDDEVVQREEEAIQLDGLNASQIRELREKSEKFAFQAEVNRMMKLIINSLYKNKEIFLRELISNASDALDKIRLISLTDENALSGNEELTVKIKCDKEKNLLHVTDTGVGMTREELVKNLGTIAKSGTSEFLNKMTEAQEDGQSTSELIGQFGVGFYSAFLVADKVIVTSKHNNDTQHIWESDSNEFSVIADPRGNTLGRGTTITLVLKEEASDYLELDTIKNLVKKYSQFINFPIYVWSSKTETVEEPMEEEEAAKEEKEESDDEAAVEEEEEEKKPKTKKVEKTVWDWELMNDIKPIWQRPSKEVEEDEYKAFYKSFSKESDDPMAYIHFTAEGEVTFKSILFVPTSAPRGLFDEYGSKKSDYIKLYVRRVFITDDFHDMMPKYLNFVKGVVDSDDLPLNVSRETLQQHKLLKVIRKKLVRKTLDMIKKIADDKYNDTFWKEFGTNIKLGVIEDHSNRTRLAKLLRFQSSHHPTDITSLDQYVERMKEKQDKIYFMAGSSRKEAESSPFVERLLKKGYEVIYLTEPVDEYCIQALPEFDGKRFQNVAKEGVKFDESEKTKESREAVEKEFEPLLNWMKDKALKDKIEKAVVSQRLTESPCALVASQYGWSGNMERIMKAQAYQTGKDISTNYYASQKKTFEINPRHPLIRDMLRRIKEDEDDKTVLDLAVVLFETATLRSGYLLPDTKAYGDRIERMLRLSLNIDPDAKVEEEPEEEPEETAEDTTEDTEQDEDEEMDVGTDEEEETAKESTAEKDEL

Molecule: CCOC(=O)OC(=O)OCC [DEPC, Diethyl pyrocarbonate]
- Effect of histidine modification on peptide-binding activity of N34-355 (GRP94 [1]; His6 tag cleaved, peptide A-coated plates, 0.7 μg protein per well, FIG. 6C): abolished

Molecule: O=C(O)CN(CCOCCOCCN(CC(=O)O)CC(=O)O)CC(=O)O [EGTA]
- Growth under Ca++-chelating conditions, -/- cells (grp94-/- ES cells): cannot grow
- Growth under Ca++-chelating conditions, WT cells (WT ES cells): can grow for 5 days

Molecule: NO [Hydroxylamine]
- Effect of histidine modification on peptide-binding activity of N34-355 (GRP94 [1]): restored the activity

Molecule: c1c[nH]cn1 [imidazole]
- IC50 (GRP94 [1]; N34-355 binding to peptide A, FIG. 6B, read-out: Imidazole concentration that reduced peptide binding by half): 6 mM

Molecule: FLWGPRALV [MAGE 3]
- GRP94 binding (GRP94 [2]; [8]): yes

Molecule: Glucose Regulated Protein 94 [GRP94]
- Fraction of the protein that can be loaded with peptide (GRP94 [3]): up to 85%
- Fraction of the protein shown to bind peptides (GRP94 [4]): about 1%

Molecule: KRQIYTDLEMNRLGK [PepA]
- Binder or non-binder of GRP94 in the peptide binding assay (GRP94 [1]): binder

Molecule: RAHYNIVTF (RAH)
- GRP94 binding (GRP94 [2]): yes, weak

Molecule: RGYVYQGL [VSV8]
- GRP94 binding (GRP94 [2]): yes
- Binder or non-binder of GRP94 in the peptide binding assay (GRP94 [1]): binder

Molecule: SIINFEKL [OVA 257-264]
- GRP94 binding (GRP94 [2]; [8]): yes

B1: N34-355: Recombinant GRP94 fragment, amino acids 34-355, N-terminal His6 tag and factor Xa site, expressed in E. coli (protein)
chain: PYNGTGSAIQLDGLNASQIRELREKSEKFAFQAEVNRMMKLIINSLYKNKEIFLRELISNASDALDKIRLISLTDENALSGNEELTVKIKCDKEKNLLHVTDTGVGMTREELVKNLGTIAKSGTSEFLNKMTEAQEDGQSTSELIGQFGVGFYSAFLVADKVIVTSKHNNDTQHIWESDSNEFSVIADPRGNTLGRGTTITLVLKEEASDYLELDTIKNLVKKYSQFINFPIYVWSSKTETVEEPMEEEEAAKEEKEESDDEAAVEEEEEEKKPKTKKVEKTVWDWELMNDIKPIWQRPSKEVEEDEYKAFYKSFSKESDDPMAYIHFT
modifications: left off: small tags and cut ends
notes: Recombinant GRP94 fragment, amino acids 34-355, N-terminal His6 tag and factor Xa site, expressed in E. coli
- Uptake by dendritic cells [5]: internalized
- Inhibition of peptide binding activity by pre-treatment with radicicol (GRP94 [6]): inhibited significantly
- Binding of VSV8 peptide (dose binding curve) (GRP94 [1]; VSV8-coated plates, compared with N1-355, FIG. 1B): binding curve very similar to that of N1-355

B2: H125D: N34-355 with His125 mutated to Asp (protein, UniProt P14625 34-355, looked up, variant H125D)
chain: DLGKSREGSRTDDEVVQREEEAIQLDGLNASQIRELREKSEKFAFQAEVNRMMKLIINSLYKNKEIFLRELISNASDALDKIRLISLTDENALSGNEELTVKIKCDKEKNLLDVTDTGVGMTREELVKNLGTIAKSGTSEFLNKMTEAQEDGQSTSELIGQFGVGFYSAFLVADKVIVTSKHNNDTQHIWESDSNEFSVIADPRGNTLGRGTTITLVLKEEASDYLELDTIKNLVKKYSQFINFPIYVWSSKTETVEEPMEEEEAAKEEKEESDDEAAVEEEEEEKKPKTKKVEKTVWDWELMNDIKPIWQRPSKEVEEDEY
modifications: fragment 34-355 His6 tag, factor Xa site
notes: N34-355 with His125 mutated to Asp
- Radicicol binding (conformational change, native gel mobility, 9G10 epitope) [7]: retained its ability to bind the inhibitor radicicol
- Peptide binding activity (GRP94 [6]; peptide A-coated plates, 0.7 or 2 μg protein, FIG. 7A): almost no peptide binding activity

B3: GRP94 bound to tumor peptides: GRP94 complexed with tumor peptides, used to vaccinate mice (Srivastava's lab) (protein, UniProt P08113 22-802, looked up)
Endoplasmin: DDEVDVDGTVEEDLGKSREGSRTDDEVVQREEEAIQLDGLNASQIRELREKSEKFAFQAEVNRMMKLIINSLYKNKEIFLRELISNASDALDKIRLISLTDENALAGNEELTVKIKCDKEKNLLHVTDTGVGMTREELVKNLGTIAKSGTSEFLNKMTEAQEDGQSTSELIGQFGVGFYSAFLVADKVIVTSKHNNDTQHIWESDSNEFSVIADPRGNTLGRGTTITLVLKEEASDYLELDTIKNLVRKYSQFINFPIYVWSSKTETVEEPLEEDEAAKEEKEESDDEAAVEEEEEEKKPKTKKVEKTVWDWELMNDIKPIWQRPSKEVEEDEYKAFYKSFSKESDDPMAYIHFTAEGEVTFKSILFVPTSAPRGLFDEYGSKKSDYIKLYVRRVFITDDFHDMMPKYLNFVKGVVDSDDLPLNVSRETLQQHKLLKVIRKKLVRKTLDMIKKIADEKYNDTFWKEFGTNIKLGVIEDHSNRTRLAKLLRFQSSHHSTDITSLDQYVERMKEKQDKIYFMAGSSRKEAESSPFVERLLKKGYEVIYLTEPVDEYCIQALPEFDGKRFQNVAKEGVKFDESEKTKESREATEKEFEPLLNWMKDKALKDKIEKAVVSQRLTESPCALVASQYGWSGNMERIMKAQAYQTGKDISTNYYASQKKTFEINPRHPLIRDMLRRIKEDEDDKTVMDLAVVLFETATLRSGYLLPDTKAYGDRIERMLRLSLNIDPEAQVEEEPEEEPEDTSEDAEDSEQDEGEEMDAGTEEEEEETEKESTEKDEL
modifications: complexed with tumor peptides
- Improvement of T cell responses on tumor challenge compared to control mice (tumors): 10-200 fold
